Experimental data: ChEMBL document CHEMBL1134282 (J Med Chem, 2001)

Legend:
Cholinesterase = Cholinesterase (Homo sapiens, UniProt P06276); assay: In vitro inhibition of human plasma butyrylcholinesterase.; format: cell-free
Acetylcholinesterase = Acetylcholinesterase (Homo sapiens, UniProt P22303); assay: In vitro inhibition of human erythrocyte acetylcholinesterase.
Acetylcholinesterase, sequence (P22303 whole entry): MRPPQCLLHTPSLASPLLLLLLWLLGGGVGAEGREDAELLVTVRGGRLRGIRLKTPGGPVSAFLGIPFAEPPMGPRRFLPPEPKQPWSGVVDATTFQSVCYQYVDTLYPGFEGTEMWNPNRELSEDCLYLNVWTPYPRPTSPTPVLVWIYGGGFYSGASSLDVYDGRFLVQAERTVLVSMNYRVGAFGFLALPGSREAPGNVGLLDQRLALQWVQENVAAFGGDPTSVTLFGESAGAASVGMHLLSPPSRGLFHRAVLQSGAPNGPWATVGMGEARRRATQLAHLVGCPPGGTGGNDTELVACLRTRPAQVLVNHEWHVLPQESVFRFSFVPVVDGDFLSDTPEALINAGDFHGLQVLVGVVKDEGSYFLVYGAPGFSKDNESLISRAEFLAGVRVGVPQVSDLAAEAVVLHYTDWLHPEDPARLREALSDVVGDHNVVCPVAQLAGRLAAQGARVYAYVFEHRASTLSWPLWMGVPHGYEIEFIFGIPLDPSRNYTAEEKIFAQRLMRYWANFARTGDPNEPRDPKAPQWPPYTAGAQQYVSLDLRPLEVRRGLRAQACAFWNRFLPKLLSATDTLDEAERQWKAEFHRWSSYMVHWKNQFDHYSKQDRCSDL

Cholinesterase, sequence (P06276 whole entry): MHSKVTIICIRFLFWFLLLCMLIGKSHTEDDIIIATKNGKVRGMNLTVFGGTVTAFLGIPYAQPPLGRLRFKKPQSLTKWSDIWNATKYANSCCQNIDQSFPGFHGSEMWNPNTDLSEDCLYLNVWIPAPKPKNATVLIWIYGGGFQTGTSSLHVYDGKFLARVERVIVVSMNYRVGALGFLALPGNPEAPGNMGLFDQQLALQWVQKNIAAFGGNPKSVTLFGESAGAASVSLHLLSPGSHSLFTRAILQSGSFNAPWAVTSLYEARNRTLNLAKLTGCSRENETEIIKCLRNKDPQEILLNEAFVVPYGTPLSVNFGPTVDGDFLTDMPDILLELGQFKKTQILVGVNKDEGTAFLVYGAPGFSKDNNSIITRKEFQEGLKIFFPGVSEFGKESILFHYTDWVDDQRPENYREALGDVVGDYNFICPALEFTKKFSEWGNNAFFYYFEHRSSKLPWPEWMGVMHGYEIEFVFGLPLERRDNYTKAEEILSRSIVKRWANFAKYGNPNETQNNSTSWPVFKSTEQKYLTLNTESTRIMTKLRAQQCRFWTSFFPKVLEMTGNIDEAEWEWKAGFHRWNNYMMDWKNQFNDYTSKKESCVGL

Row | Compound | IC50 (Cholinesterase) | IC50 (Acetylcholinesterase)
1 | CC(C)c1ccccc1NC(=O)Oc1ccc2c(c1)[C@]1(C)CCN(C)[C@@H]1N2C | 650 nM | 15 nM
2 | Cc1ccc(NC(=O)Oc2ccc3c(c2)[C@]2(C)CCN(C)[C@@H]2N3C)cc1C | 66 nM | 31 nM
3 | Cc1cc(C)cc(NC(=O)Oc2ccc3c(c2)[C@]2(C)CCN(C)[C@@H]2N3C)c1 | 798 nM | 78 nM
4 | Cc1cccc(NC(=O)Oc2ccc3c(c2)[C@]2(C)CCN(C)[C@@H]2N3C)c1 | 165 nM | 28 nM
5 | CN(C(=O)Oc1ccc2c(c1)[C@]1(C)CCN(C)[C@@H]1N2C)c1ccccc1 | > 10000 nM | 690 nM
6 | CN(C)Cc1cc2c(cc1OC(=O)Nc1ccccc1)[C@]1(C)CCN(C)[C@@H]1N2C | 3890 nM | 2500 nM
7 | Cc1cc2c(cc1OC(=O)Nc1ccccc1)[C@]1(C)CCN(C)[C@@H]1N2C | 5020 nM | 260 nM
8 | CNC(=O)Oc1cc2c(cc1C)N(C)[C@H]1N(C)CC[C@@]21C | 8530 nM | > 10000 nM
9 | CCc1cccc(CC)c1NC(=O)Oc1ccc2c(c1)[C@]1(C)CCN(C)[C@@H]1N2C | 1100 nM | –
10 | Cc1ccc(NC(=O)Oc2ccc3c(c2)[C@]2(C)CCN(C)[C@@H]2N3C)c(C)c1 | – | 14 nM
11 | Cc1cccc(NC(=O)Oc2ccc3c(c2)[C@]2(C)CCN(C)[C@@H]2N3C)c1C | 170 nM | 23 nM
12 | Cc1ccc(C)c(NC(=O)Oc2ccc3c(c2)[C@]2(C)CCN(C)[C@@H]2N3C)c1 | 490 nM | 26 nM
13 | Cc1cccc(C)c1NC(=O)Oc1ccc2c(c1)[C@]1(C)CCN(C)[C@@H]1N2C | 290 nM | 785 nM
14 | CCc1ccccc1NC(=O)Oc1ccc2c(c1)[C@]1(C)CCN(C)[C@@H]1N2C [ETHYLPHENSERINE] | – | 10 nM
15 | CN1CC[C@@]2(C)c3cc(OC(=O)Nc4ccccc4)ccc3N(C)[C@@H]12 [PHENSERINE] | 1560 nM | –
